Legend:
P110 δ/Pi3K δ = P110 δ/Pi3K δ (Homo sapiens, UniProt O00329); experiment: Fluorescent (HTRF) determination of PI3K enzyme activity, δ isoform; type: biochemical; set-up: inhibition: dose or concentration left out as unconfirmed
Source text: Assay 1: Fluorescent determination of PI3Kinase Kinase enzyme activity
Phosphoinositide 3 kinases (PI3K) belong to a class of lipid kinases that play a critical role in the regulation of several key cellular processes. The PI3K are capable of phosphorylating the 3-hydroxy position of phosphoinositols thereby generating second messengers involved in downstream signalling events. The homogenous time resolved fluorescence (HTRF) assay allows detection of 3,4,5-triphosphate (PIP3) formed as a result of phosphorylation of phosphotidylinositol 4,5-biphosphate (PIP2) by PI3K isoforms such as α, β, γ or δ.
PI3K isoform activity for α, β, γ or δ was determined using a PI3K human HTRF™ Assay Kit (Millipore, Billerica, Mass.) with modifications. All incubations were carried out at room temperature. […] After the initial incubation, 5 μl/well of 400 μM ATP was added and incubated for an additional 30 minutes. Reaction was terminated by adding 5 μl/well stop solution (Millipore, Billerica, Mass.). Five microliters of detection mix (Millipore, Billerica, Mass.) were then added to each well and was incubated for 6-18 h in the dark. […] Data were analyzed using Graphpad Prism (Graphpad software; San Diego Calif.) for IC50 determination. Percent inhibition was calculated based on the values for the blank and enzyme controls.

P110 δ/Pi3K δ, sequence (O00329 whole entry, canonical isoform): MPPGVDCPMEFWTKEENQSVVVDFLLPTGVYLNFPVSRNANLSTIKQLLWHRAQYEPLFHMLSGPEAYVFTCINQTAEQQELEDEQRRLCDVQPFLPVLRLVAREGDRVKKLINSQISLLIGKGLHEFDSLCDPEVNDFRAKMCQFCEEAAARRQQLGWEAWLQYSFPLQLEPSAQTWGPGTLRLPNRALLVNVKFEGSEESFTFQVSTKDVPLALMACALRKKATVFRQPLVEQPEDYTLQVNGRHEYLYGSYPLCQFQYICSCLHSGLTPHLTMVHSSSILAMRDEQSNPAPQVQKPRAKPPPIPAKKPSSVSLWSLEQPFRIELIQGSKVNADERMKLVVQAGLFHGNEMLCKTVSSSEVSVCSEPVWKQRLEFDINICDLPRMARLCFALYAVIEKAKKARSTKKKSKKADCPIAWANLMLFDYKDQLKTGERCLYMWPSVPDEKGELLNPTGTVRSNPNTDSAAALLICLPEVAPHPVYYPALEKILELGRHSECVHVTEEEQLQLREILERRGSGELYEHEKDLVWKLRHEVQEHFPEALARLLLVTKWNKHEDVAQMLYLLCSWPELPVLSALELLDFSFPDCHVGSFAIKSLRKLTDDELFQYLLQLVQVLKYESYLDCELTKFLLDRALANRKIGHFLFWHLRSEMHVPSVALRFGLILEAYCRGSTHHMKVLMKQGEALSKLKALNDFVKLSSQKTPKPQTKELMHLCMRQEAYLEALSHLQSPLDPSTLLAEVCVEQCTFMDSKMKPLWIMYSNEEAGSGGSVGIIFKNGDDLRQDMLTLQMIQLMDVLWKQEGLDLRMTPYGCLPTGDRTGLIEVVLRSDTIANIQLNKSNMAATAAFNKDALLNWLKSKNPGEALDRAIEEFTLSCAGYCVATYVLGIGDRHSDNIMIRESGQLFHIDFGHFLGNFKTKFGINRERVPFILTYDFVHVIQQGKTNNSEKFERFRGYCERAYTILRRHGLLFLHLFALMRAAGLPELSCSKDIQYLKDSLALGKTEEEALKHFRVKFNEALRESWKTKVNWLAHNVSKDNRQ
P110 δ/Pi3K δ, sequence (P27986 whole entry partner, canonical isoform): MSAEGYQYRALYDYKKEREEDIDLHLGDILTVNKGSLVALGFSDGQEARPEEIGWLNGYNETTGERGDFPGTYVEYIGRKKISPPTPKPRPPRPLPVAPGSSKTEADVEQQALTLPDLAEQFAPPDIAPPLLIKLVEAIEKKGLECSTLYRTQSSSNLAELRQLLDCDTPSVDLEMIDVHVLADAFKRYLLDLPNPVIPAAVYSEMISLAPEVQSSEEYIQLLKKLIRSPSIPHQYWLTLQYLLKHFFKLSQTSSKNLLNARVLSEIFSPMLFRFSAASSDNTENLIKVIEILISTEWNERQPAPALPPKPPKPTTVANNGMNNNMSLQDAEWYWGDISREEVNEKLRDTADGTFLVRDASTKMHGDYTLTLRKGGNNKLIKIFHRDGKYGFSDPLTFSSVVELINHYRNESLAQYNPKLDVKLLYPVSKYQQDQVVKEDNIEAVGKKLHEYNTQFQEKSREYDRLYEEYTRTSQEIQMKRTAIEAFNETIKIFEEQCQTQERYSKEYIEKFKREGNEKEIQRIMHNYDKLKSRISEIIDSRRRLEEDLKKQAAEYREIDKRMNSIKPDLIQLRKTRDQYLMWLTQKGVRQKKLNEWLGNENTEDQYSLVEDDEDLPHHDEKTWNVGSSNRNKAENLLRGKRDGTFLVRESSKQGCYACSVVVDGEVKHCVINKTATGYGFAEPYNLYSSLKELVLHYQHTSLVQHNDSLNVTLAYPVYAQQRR

SMILES | melting point [°C] | inhibition at 1 µM (P110 δ/Pi3K δ) [%] | inhibition (P110 δ/Pi3K δ) [%] | IC50 (P110 δ/Pi3K δ; read-out: P110 δ/ Pi3K δ IC 50 nM) [nM]
Cl.O=c1c(-c2ccc(F)cc2)c(CN2CCOCC2)oc2ccc(Br)cc12 | 232 to 236 |  |  | 
Cl.O=c1c(-c2ccccc2)c(CN2CCOCC2)oc2ccc(Br)cc12 | 229 to 230 |  |  | 
Nc1ncnc2c1ncn2Cc1oc2ccccc2c(=O)c1-c1ccccc1 [Example 3, 2-[(6-Amino-9H-purin-9-yl)methyl]-3-phenyl-4H-chromen-4-one] | 173 to 175 | < 50 |  | 
Cl.O=c1c(-c2ccccc2)c(CN2CCOCC2)oc2ccccc12 [Example 4a, 2-(Morpholinomethyl)-3-phenyl-4H-chromen-4-one hydrochloride] | 208 to 209 | < 50 |  | 
O=c1c(-c2ccccc2)c(Cn2cnc3ccccc32)oc2ccc(Br)cc12 [Example 5, 2-[(1H-Benzo[d]imidazol-1-yl)methyl]-6-bromo-3-phenyl-4H-chromen-4-one] | 192 to 197 |  |  | 
Cc1cccc2c1ncn2Cc1oc2ccc(Br)cc2c(=O)c1-c1ccccc1 [Example 6, 6-Bromo-2-[(4-methyl-1H-benzo[d]imidazol-1-yl)methyl]-3-phenyl-4H-chromen-4-one] | 176 to 179 | < 50 |  | 
O=c1c(-c2ccccc2)c(Cn2cnc3ccccc32)oc2ccccc12 [Example 7, 2-[(1H-benzo[d]imidazol-1-yl)methyl]-3-phenyl-4H-chromen-4-one] | 186 to 191 | < 50 |  | 
Cc1cccc2c1ncn2Cc1oc2ccccc2c(=O)c1-c1ccccc1 [Example 8, 2-[(4-methyl-1H-benzo[d]imidazol-1-yl)methyl]-3-phenyl-4H-chromen-4-one] | 204 to 208 |  |  | 
O=c1c(-c2ccccc2)c(Cn2cnc3c(Cl)ncnc32)oc2ccccc12 [Example 9, 2-[(6-Chloro-9H-purin-9-yl)methyl]-3-phenyl-4H-chromen-4-one] | 187 to 190 | < 50 |  | 
O=c1c(-c2ccccc2)c(CSc2ncnc3[nH]cnc23)oc2ccccc12 [Example 11, 2-((9H-Purin-6-ylthio)methyl)-3-phenyl-4H-chromen-4-one] | 208 to 209 | < 50 |  | 
O=c1c(-c2ccccc2)c(Cn2ccnc2)oc2ccccc12 [Example 12, 2-[(1H-Imidazol-1-yl)methyl]-3-phenyl-4H-chromen-4-one] | 168 to 171 | < 50 |  | 
O=c1c(-c2ccccc2)c(CSc2ncnc3[nH]cnc23)oc2ccc(Br)cc12 [Example 13, 2-[(9H-Purin-6-ylthio)methyl]-6-bromo-3-phenyl-4H-chromen-4-one] | 214 to 218 | < 50 |  | 
Nc1ncnc2c1cnn2Cc1oc2ccc(Br)cc2c(=O)c1-c1ccccc1 [Example 14, 2-((4-Amino-1H-pyrazolo[3,4-d]pyrimidin-1-yl)methyl)-6-bromo-3-phenyl-4H-chromen-4-one] | 236 to 240 | < 50 |  | 
Nc1ncnc2c1ncn2Cc1oc2ccc(Br)cc2c(=O)c1-c1ccc(F)cc1 [Example 15, 2-[(6-Amino-9H-purin-9-yl)methyl]-6-bromo-3-(4-fluorophenyl)-4H-chromen-4-one] | 238 to 242 | < 50 |  | 
Nc1ncnc2c1ncn2Cc1oc2ccccc2c(=O)c1-c1ccc(F)cc1 [Example 16, 2-[(6-Amino-9H-purin-9-yl)methyl]-3-(4-fluorophenyl)-4H-chromen-4-one] | 212 to 216 | < 50 |  | 
Cl.O=c1c(-c2ccc(F)cc2)c(CN2CCOCC2)oc2ccccc12 [Example 18a, 3-(4-fluorophenyl)-2-(morpholinomethyl)-4H-chromen-4-one hydrochloride] | 225 to 229 | < 50 |  | 
Cc1ccccc1-c1c(Cn2cnc3c(N)ncnc32)oc2ccc(Br)cc2c1=O [Example 19, 2-[(6-Amino-9H-purin-9-yl)methyl]-6-bromo-3-o-tolyl-4H-chromen-4-one] | 252 to 255 |  |  | 

SMILES | melting point [°C] | inhibition at 1 µM (P110 δ/Pi3K δ) [%] | inhibition (P110 δ/Pi3K δ) [%] | IC50 (P110 δ/Pi3K δ; read-out: P110 δ/ Pi3K δ IC 50 nM) [nM]
Cn1c(=O)c2c(ncn2Cc2oc3ccc(Br)cc3c(=O)c2-c2ccccc2)n(C)c1=O [Example 20, 7-[(6-Bromo-4-oxo-3-phenyl-4H-chromen-2-yl)methyl]-1,3-dimethyl-1H-purine-2,6(3H,7H)-dione] | 253 to 255 | < 50 |  | 
CC(c1oc2ccc(Br)cc2c(=O)c1-c1ccccc1)n1cnc2c(N)ncnc21 (stereo not drawn) [Example 21, 2-(1-(6-Amino-9H-purin-9-yl)ethyl)-6-bromo-3-phenyl-4H-chromen-4-one] | 230 to 231 | < 50 |  | 
CC(Sc1ncnc2[nH]cnc12)c1oc2ccc(Br)cc2c(=O)c1-c1ccccc1 (stereo not drawn) [Example 22, 2-(1-(9H-Purin-6-ylthio)ethyl)-6-bromo-3-phenyl-4H-chromen-4-one] | 234 to 237 | < 50 |  | 
C[C@H](Nc1ncnc2[nH]cnc12)c1oc2ccc(Br)cc2c(=O)c1-c1ccccc1 [Example 24, (S)-2-(1-(9H-purin-6-ylamino)ethyl)-6-bromo-3-phenyl-4H-chromen-4-one] | 151 to 154 | < 50 |  | 
O=c1c(-c2ccccc2)c(CNc2ncnc3[nH]cnc23)oc2ccc(Br)cc12 [Example 25, 2-((9H-purin-6-ylamino)methyl)-6-bromo-3-phenyl-4H-chromen-4-one] | 151 to 154 | < 50 |  | 
CC(c1oc2ccc(Br)cc2c(=O)c1-c1ccccc1)n1ncc2c(N)ncnc21 (stereo not drawn) [Example 26, 2-(1-(4-amino-1H-pyrazolo[3,4-d]pyrimidin-1-yl)ethyl)-6-bromo-3-phenyl-4H-chromen-4-one] | 239 to 240 | < 50 |  | 
COc1ccc2oc(Cn3cnc4c(N)ncnc43)c(-c3ccccc3)c(=O)c2c1 [Example 27, 2-((6-Amino-9H-purin-9-yl)methyl)-6-methoxy-3-phenyl-4H-chromen-4-one] | 197 to 198 | < 50 |  | 
COc1cc(-c2nn(C(C)c3oc4ccccc4c(=O)c3-c3cccc(F)c3)c3ncnc(N)c23)ccc1F (stereo not drawn) [Example 82, 2-(1-(4-amino-3-(4-fluoro-3-methoxyphenyl)-1H-pyrazolo[3,4-d]pyrimidin-1-yl)ethyl)-3-(3-fluorophenyl)-4H-chromen-4-one] |  |  | 50 to 100 | 
CC(c1oc2ccccc2c(=O)c1-c1cccc(F)c1)n1nc(-c2ccc(F)c(O)c2)c2c(N)ncnc21 (stereo not drawn) [Example 82a, 2-(1-(4-amino-3-(4-fluoro-3-hydroxyphenyl)-1H-pyrazolo[3,4-d]pyrimidin-1-yl)ethyl)-3-(3-fluorophenyl)-4H-chromen-4-one] | 241 to 244 |  |  | 
COc1cc(F)ccc1-c1nn(C(C)c2oc3ccccc3c(=O)c2-c2cccc(F)c2)c2ncnc(N)c12 (stereo not drawn) [Example 90, 2-(1-(4-amino-3-(4-fluoro-2-methoxyphenyl)-1H-pyrazolo[3,4-d]pyrimidin-1-yl)ethyl)-3-(3-fluorophenyl)-4H-chromen-4-one] |  |  | < 50 | 
CC(c1oc2ccccc2c(=O)c1-c1cccc(F)c1)n1nc(-c2ccc(F)cc2O)c2c(N)ncnc21 (stereo not drawn) [Example 90a, 2-(1-(4-amino-3-(4-fluoro-2-hydroxyphenyl)-1H-pyrazolo[3,4-d]pyrimidin-1-yl)ethyl)-3-(3-fluorophenyl)-4H-chromen-4-one] | 235 to 237 |  |  | 
Cc1n[nH]c2cc(-c3nn(Cc4oc5ccccc5c(=O)c4-c4ccccc4)c4ncnc(N)c34)ccc12 [Example 92, 2-((4-amino-3-(3-methyl-1H-indazol-6-yl)-1H-pyrazolo[3,4-d]pyrimidin-1-yl)methyl)-3-phenyl-4H-chromen-4-one] |  |  | 50 to 100 | 
CC(c1oc2ccccc2c(=O)c1-c1cccc(F)c1)n1nc(-c2cc(F)c(O)c(F)c2)c2c(N)ncnc21 (stereo not drawn) [Example 126a, 2-(1-(4-amino-3-(3,5-difluoro-4-hydroxyphenyl)-1H-pyrazolo[3,4-d]pyrimidin-1-yl)ethyl)-3-(3-fluorophenyl)-4H-chromen-4-one] |  |  | < 50 | 
CC(C)Oc1ccc(-c2nn(C(C)c3oc4ccccc4c(=O)c3-c3cccc(F)c3)c3ncnc(N)c23)cc1F (stereo not drawn) [Example 158, 2-(1-(4-amino-3-(3-fluoro-4-isopropoxyphenyl)-1H-pyrazolo[3,4-d]pyrimidin-1-yl)ethyl)-3-(3-fluorophenyl)-4H-chromen-4-one] |  |  | 50 to 100 | < 250
CC(c1oc2ccccc2c(=O)c1-c1cccc(F)c1)n1nc(-c2cncnc2)c2c(N)ncnc21 (stereo not drawn) [Example 160, 2-(1-(4-amino-3-(pyrimidin-5-yl)-1H-pyrazolo[3,4-d]pyrimidin-1-yl)ethyl)-3-(3-fluorophenyl)-4H-chromen-4-one] | 207 to 211 |  |  | 
CC(c1oc2ccccc2c(=O)c1-c1cccc(F)c1)n1nc(-c2cnn(C)c2)c2c(N)ncnc21 (stereo not drawn) [Example 164, 2-(1-(4-amino-3-(1-methyl-1H-pyrazol-4-yl)-1H-pyrazolo[3,4-d]pyrimidin-1-yl)ethyl)-3-(3-fluorophenyl)-4H-chromen-4-one] |  |  | < 50 | 
CCOc1ccc2cc(-c3nn(C(C)c4oc5ccccc5c(=O)c4-c4cccc(F)c4)c4ncnc(N)c34)ccc2c1 (stereo not drawn) [Example 175, 2-(1-(4-amino-3-(6-ethoxynaphthalen-2-yl)-1H-pyrazolo[3,4-d]pyrimidin-1-yl)ethyl)-3-(3-fluorophenyl)-4H-chromen-4-one] | 286 to 290 |  |  | 
